One data set deals with HIV NL4.3 strain. The data set can be described thus: HIV infectivity assay, reporter cell line HeLa-CD4-LTR-LacZ, β-Gal activity (Tat protein inhibition). Conditions: Human immunodeficiency virus 1, read-out: Infectivity IC50, HeLa-CD4-LTR-LacZ. The data set is classed as cell-based, HIV-1 (NL4.3). The method, then:
(§1) Next, the activity of these leads against HIV infection was evaluated using the reporter cell line HeLa-CD4-LTR-LacZ, which stably expresses the β-galactosidase (β-Gal) gene under the control of the HIV 5′ LTR. The HIV NL4.3 strain was used for these studies and β-Gal activity was measured 72 hrs post infection (FIG. 3A). Cytotoxicity assays using Cell-Titer-Glo were performed in parallel to assess cell viability (FIG. 3A). […] Their anti-HIV activity was further assessed in acute replication of Jurkat T cells with the NL4.3 strain (FIG. 3A). […] These OM10.1 cells contain a single integrated wild-type provirus, while ACH-2 cells contain a single integrated provirus with a TAR mutation C37T, defective Tat-TAR feedback loop (FIG. 3B).

Data set [1] in a line: Cytotoxicity assay, Cell-Titer-Glo, HeLa-CD4-LTR-LacZ. To be noted: human, hela-cd4-ltr-lacz cells, Infectivity CC50, HeLa-CD4-LTR-LacZ. The method, then:
as §1

Where two headings read alike, the source gives them in different places.

As usually defined, the IC50 is the concentration that gives 50% inhibition. The term CC50 denotes the concentration giving 50% cytotoxicity. Lower therefore signals harm at low concentration. For the compound `CCN(CCCN1CCCC1=O)C(=O)c1nn(-c2ccccc2)c2c1CCC2` [GB-05], in the data set on HIV NL4.3 strain (analogs of TT-44881 (Table 1)), the IC50 was over 100 µM. In data set [1] (analogs of TT-44881 (Table 1)), this compound gave a CC50 of over 100 µM.
Consider `O=C(NCCCN1CCCC1=O)c1nn(-c2ccccc2)c2c1CCC(O)C2` (stereo not shown) [GB-12], for which the IC50 in the data set on HIV NL4.3 strain (analogs of TT-44881 (Table 1)) was in the range of 1 to 10 µM. Moreover, the CC50 in data set [1] (analogs of TT-44881 (Table 1)) was over 100 µM.
As to `CN1CCN(CCOc2ccc(C(F)(F)F)cc2NC(=O)Cn2cc(C(F)(F)F)cc(Cl)c2=O)CC1` [compound 52], the IC50 with HIV NL4.3 strain (analogs of TT-44863 (Table 2)) fell in the range of 10 to 20 µM. For the same compound, the CC50 in data set [1] (analogs of TT-44863 (Table 2)) was 25 to 50 µM.
In the same order, the values of `COc1ccc(C(F)(F)F)cc1CNC(=O)Cn1cc(C(F)(F)F)ccc1=O` [compound 46960] are over 100 µM and over 100 µM.
Take `O=C(NCCCn1ccnc1)C1c2ccccc2Oc2ccccc21` [3-61]: in the data set with HIV NL4.3 strain (analogs of TT-44856 (Table 3)), the IC50 is over 100 µM. The same compound registered a CC50 in data set [1] (analogs of TT-44856 (Table 3)) of over 100 µM.
For the compound `CCCC(C(=O)NCCCn1c(C)nc2ccccc21)(c1ccccc1)c1ccccc1` [3-66], the IC50 in the data set on HIV NL4.3 strain (analogs of TT-44856 (Table 3)) lay within 20 to 50 µM. Besides, in data set [1] (analogs of TT-44856 (Table 3)), the CC50 lay within 20 to 50 µM.
`CC(=O)c1cccc(CNC(=O)c2cn(-c3ccccc3)c3ccccc23)c1` [compound 41967]: the IC50 in the data set with HIV NL4.3 strain (analogs of TT-44881 (Table 1)) was over 100 µM. Besides, in data set [1] (analogs of TT-44881 (Table 1)), the CC50 was over 100 µM.
For `O=C(NCCCn1ccnc1)c1ccc2ccccc2c1` [3-34], in data set [1] (analogs of TT-44856 (Table 3)), the CC50 was over 100 µM.
For the compound `CNc1ccccc1CC(=O)NCCCn1ccnc1` [Z31794405], the IC50 with HIV NL4.3 strain (analogs of TT-44856 (Table 3)) was over 100 µM.
Same read-out and setting: the figure for `Cc1ccc(CCC(=O)NCCCn2ccnc2)cc1` [Z196426172] is over 100 µM.
The same measure, in the same setting: the figure for `O=C(NCCCn1ccnc1)N(Cc1ccccc1)Cc1ccccc1` [Z991981670] is over 100 µM; for `COc1cccc(CC(=O)NCCCn2ccnc2)c1` [Z31796092] it is over 100 µM.
The same measure, in the same setting: the figure for `O=C(Cc1c(Cl)cccc1Cl)NCCCn1ccnc1` [Z30217435] is over 100 µM; for `Cc1ccccc1CC(=O)NCCCn1ccnc1` [Z51979592] it is over 100 µM; for `O=C(NCCCn1ccnc1)c1ccc2ccccc2c1` [Z31795639] it is over 100 µM.
`CC(CNC(=O)CCn1cncn1)(c1ccccc1)c1ccccc1` [Z221503086]: in the data set on HIV NL4.3 strain (analogs of TT-44856 (Table 3)), the IC50 is over 100 µM.
Still for that read-out and setting: to `CC(CNC(=O)Cc1c(F)cccc1Cl)Cn1ccnc1` (stereo not shown) [Z1250741002] belongs over 100 µM; to `CC(C)(C(=O)NCCCn1ccnc1)c1cccc(C(F)(F)F)c1` [Z1053536312], over 100 µM.
Still for that read-out and setting: the figure for `O=C(Cc1ccc(F)cc1)NCCCn1ccnc1` [Z31795779] is over 100 µM.
`CCC(=O)NC(C(=O)NCCCn1ccnc1)c1ccccc1` (stereo not shown) [Z1207330250]: the IC50 in the data set on HIV NL4.3 strain (analogs of TT-44856 (Table 3)) is over 100 µM.
Consider `O=C(Cc1cccc(F)c1)NCCCn1ccnc1` [Z31796183], for which the IC50 in the data set on HIV NL4.3 strain (analogs of TT-44856 (Table 3)) was over 100 µM.
Still for that read-out and setting: the figure for `O=C(CC(c1ccccc1)c1ccccc1)NCCCn1ccnc1` [Z30217483] is over 100 µM; for `CC(C(=O)NCCCn1ccnc1)c1c(Cl)cccc1Cl` (stereo not shown) [Z1004969394] it is over 100 µM.
On the same count and under the same terms, to `O=C(Cc1ccc(C(F)(F)F)cc1)NCCCn1ccnc1` [Z236749082] belongs over 100 µM.
For the compound `O=C(Cc1ccc2ccccc2c1)NCCCn1ccnc1` [Z31795124], the IC50 in the data set with HIV NL4.3 strain (analogs of TT-44856 (Table 3)) is over 100 µM.
On the same count and under the same terms, to `O=C(Cc1cccc(C(F)(F)F)c1)NCCCn1ccnc1` [Z30217436] belongs over 100 µM.
In data set [1] (analogs of TT-44856 (Table 3)), `CC(C)(C(=O)NCCCn1ccnc1)c1cccc(C(F)(F)F)c1` [compound 46606] registered a CC50 of over 100 µM.
Consider `CC(CNC(=O)CCn1cnc2ccccc21)(c1ccccc1)c1ccccc1` [Z119886832], for which the IC50 in the data set with HIV NL4.3 strain (analogs of TT-44856 (Table 3)) was over 100 µM.
Same read-out and setting: the figure for `O=C(Cc1cccc2ccccc12)NCCCn1ccnc1` [Z31795406] is over 100 µM.
Still for that read-out and setting: to `O=C(NCCCn1ccnc1)c1ccc(-c2ccccc2)cc1` [Z31795699] belongs over 100 µM; to `O=C(COC(c1ccccc1)c1ccccc1)NCCCn1ccnc1` [Z51979572], over 100 µM.
On to `O=C(Cc1ccccc1Cl)NCCCn1ccnc1` [Z31796195], for which the IC50 in the data set on HIV NL4.3 strain (analogs of TT-44856 (Table 3)) is over 100 µM.
In the case of `O=C(Cc1ccccc1F)NCCCn1ccnc1` [Z31795827], in the data set on HIV NL4.3 strain (analogs of TT-44856 (Table 3)), the IC50 is over 100 µM.

Values taken from patent US20260355184A1, “SMALL MOLECULE DEGRADERS OF HIV-1 TAT PROTEIN” (priority 2022, published 2026).
